# How the values were obtained:
# [1] = biological target: T1, human TXA2 receptor encoded by placenta cDNA clone HPL (SEQ ID NO: 1), expressed in COS-7 cells (Homo sapiens, UniProt P21731); test: Competition for [3H]S-145 binding to membranes of transfected COS-7 cells; conditions: 1.25 nM [^3H]S-145 and various concentrations of ligands
# T1 construct: expressed in transfected cells; host or cells: COS-7 cells (CDM8 vector), membranes
# T1 sequence (P21731 1-343): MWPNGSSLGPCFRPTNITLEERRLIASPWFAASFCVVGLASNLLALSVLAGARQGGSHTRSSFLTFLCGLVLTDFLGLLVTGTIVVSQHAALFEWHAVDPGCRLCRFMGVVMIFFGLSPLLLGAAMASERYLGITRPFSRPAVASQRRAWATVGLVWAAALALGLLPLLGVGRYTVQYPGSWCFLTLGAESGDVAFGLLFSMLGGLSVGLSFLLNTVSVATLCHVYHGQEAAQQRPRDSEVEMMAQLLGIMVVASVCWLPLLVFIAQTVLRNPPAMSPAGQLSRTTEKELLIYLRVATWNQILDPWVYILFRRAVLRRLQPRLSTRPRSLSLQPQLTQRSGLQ
# Protocol: To establish that HPL encodes the TXA2 receptor, the present inventors subcloned a 2.0 kb fragment of HPL into an eukaryotic expression vector, CDM8 (Seed, B., Nature 329, 840-842 (1987)), and transfected the plasmid into COS-7 cells. […] Specificity of this binding was analysed with several TXA2 analogues as well as various prostanoids.
# HPL was digested with BamHI to remove most of the 5'-untranslated region, and its 2.0 kb fragment was inserted between the HindIII-XbaI site of eukaryotic expression vector CDM8 (Seed, B., Nature […], 840-842 (1987)). A modified DEAE-dextran method (Ausbel, F. M. et al, Current Protocols in Molecular Biology. 9.2.5 (Wiley, New York, 1989)) was used for the transfection of COS-7 cells. At 60 h after the transfection, cells were collected and membranes were prepared by homogenizing the cells according to the method of Ausbel, F. M. et al., as described above in the presence of 1 mM benzamidine and 0.3 mM PMSF.
# [2] = test system: human TXA2 receptor encoded by HPL (SEQ ID NO: 1), expressed in Xenopus oocytes; test: Electrophysiological response (two-micropipette voltage clamp) of Xenopus oocytes injected with in vitro transcribed mRNA of HPL; assay type: cell-based; conditions: for response evoked (inward current): ligand added to the bath at 1 µM, oocytes 48 hours after mRNA injection
# Protocol: The TXA2 receptor stimulation results in PI turnover and Ca^2+ mobilization. The present inventors, therefore, expressed the clone in Xenopus oocyte where agonist stimulation linked to PI turnover opens endogenous Ca^2+-dependent Cl^- channel. […] The mRNA synthesized in vitro from the 2.0 kb BamHI subclone of HPL was injected into Xenopus oocytes and electrophysiological responses were measured after 48 hours. A TXA2 agonist, STA2, and other PGs dissolved in ethanol at 100 µM were added to the bath at 1 µM concentration, and responses of oocytes were recorded by the two-micropipette voltage clamp method as described in Masu, Y. et al., Nature 329, 836-838 (1987).
Compound,competition for the [^3H]S-145 binding [1],response evoked (inward current) [2],concentration as low as which the response was seen ([2]; oocytes injected with mRNA of HPL) [nM]
O=C(O)CCCC=CCC1C2CCC(C2)C1NS(=O)(=O)c1ccccc1 (stereo not drawn) [S-145],competed for the [^3H]S-145 binding,,
CCCCC[C@H](O)/C=C/[C@H]1[C@H](O)CC(=O)[C@@H]1CCCCCCC(=O)O [PGE1],,did not evoke response,
CC1(C)[C@H]2C[C@H](NC(=O)[C@H](O)C3CCCC3)[C@@H](C/C=C\CCCC(=O)O)[C@@H]1C2 [ONO-3708],competed for the [^3H]S-145 binding,,
CCCCC[C@H](O)/C=C/[C@H]1OC(O)C[C@H](O)[C@@H]1C/C=C\CCCC(=O)O (stereo partly drawn) [TXB2],at least two orders of magnitude less active in the competition,did not evoke response,
CCCCCC(O)C=CC1CC2CC(S2)C1CC=CCCCC(=O)O (stereo not drawn) [STA2],competed for the [^3H]S-145 binding,evoked a fast inward current of a few hundred nA followed by a slow phase of current of low amplitude,1
CCCCC[C@H](O)/C=C/[C@@H]1[C@@H](C/C=C\CCCC(=O)O)[C@@H](O)C[C@H]1O [PGF2 α],,did not evoke response,
PGD2,,did not evoke response,
CCCCCC(O)C=CC1C(O)CC2OC(=CCCCC(=O)O)CC21 (stereo not drawn) [I2],,did not evoke response,
CCCCC[C@H](O)/C=C/[C@H]1[C@H](O)CC(=O)[C@@H]1C/C=C\CCCC(=O)O [E2],,did not evoke response,
